Source: patent US11840686B2, “Modulation of prekallikrein (PKK) expression” (Ionis Pharmaceuticals, Inc., priority 2013, dated 2023)
Strand notation (5' to 3'): a small letter for the sugar, then the base; units joined by * are phosphorothioate-linked, units joined directly phosphodiester-linked; [ ] holds rarer units or linkages, { } end groups; capitals alone tell only the bases. e = 2'-O-(2-methoxyethyl) (MOE); [5mC] = 5-methylcytosine; d = 2'-deoxy (DNA)

Tests used:
human PKK mRNA [1] = test: Antisense inhibition of human PKK mRNA in HepaRG cells, 5,000 nM (Example 2); type: cell-based
How it was run: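 Percent inhibition of PKK mRNA is relative to untreated control, with qRT-PCR (probe set RTS3454) values adjusted to total RNA by RIBOGREEN. Oligonucleotides, fully phosphorothioate 2′-MOE gapmers, were delivered at 5,000 nM by electroporation into 20,000 HepaRG cells/well for about 24 h.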

human PKK mRNA [2] = test: Dose-dependent antisense inhibition of human PKK in HepaRG cells, 0.19-5.00 uM (Example 5); type: cell-based; details: HepaRG cells; for percent inhibition of PKK at 0.19 μM / percent inhibition of PKK at 0.56 μM / percent inhibition of PKK at 1.67 μM / percent inhibition of PKK at 5.00 μM: electroporation, approximately 16 hours; for percent inhibition of PKK mRNA, 0.19 μM: 0.19 μM antisense oligonucleotide; for percent inhibition of PKK mRNA, 0.56 μM: 0.56 μM antisense oligonucleotide; for percent inhibition of PKK mRNA, 1.67 μM: 1.67 μM antisense oligonucleotide; for percent inhibition of PKK mRNA, 5.00 μM: 5.00 μM antisense oligonucleotide
Protocol: Cells were plated at a density of 20,000 cells per well and transfected using electroporation with 0.19 μM, 0.56 μM, 1.67 μM, and 5.00 μM concentrations of antisense oligonucleotide. After a treatment period of approximately 16 hours, RNA was isolated from the cells and PKK mRNA levels were measured by quantitative real-time PCR. Human PKK primer probe set RTS3454 was used to measure mRNA levels. PKK mRNA levels were adjusted according to total RNA content, as measured by RIBOGREEN®. The antisense oligonucleotides were tested in a series of experiments that had similar culture conditions.
The half maximal inhibitory concentration (IC50) of each oligonucleotide is also presented.

[3] = 4 point dose response, Table 36
[4] = human PKK mRNA in HepaRG cells, 5-10-5 gapmers, Table 14
[5] = 4 point dose response, Table 39

Substance: 547426 (eG*eA*eG*eT*eA*dA*d[5mC]*d[5mC]*dA*dG*dA*dG*d[5mC]*dT*d[5mC]*e[5mC]*e[5mC]*eT*eT*eG; antisense) [compound 547426]
- % inhibition (human PKK mRNA [1]; Table 8, HepaRG cells, electroporation with 5,000 nM antisense oligonucleotide, approx. 24 hours, PKK mRNA by RT-PCR (RTS3454), relative to untreated control cells): 92%
- percent inhibition of PKK at 0.19 μM (human PKK mRNA [2]; Table 36): 19%
- percent inhibition of PKK at 0.56 μM (human PKK mRNA [2]; Table 36): 50%
- percent inhibition of PKK at 1.67 μM (human PKK mRNA [2]; Table 36): 84%
- percent inhibition of PKK at 5.00 μM (human PKK mRNA [2]; Table 36): 93%
- IC50 (human PKK mRNA [2]; [3]): 600 nM
- percent inhibition of PKK mRNA, 0.19 μM (human PKK mRNA [2]): 18%
- percent inhibition of PKK mRNA, 0.56 μM (human PKK mRNA [2]): 35%
- percent inhibition of PKK mRNA, 1.67 μM (human PKK mRNA [2]): 80%
- percent inhibition of PKK mRNA, 5.00 μM (human PKK mRNA [2]): 95%
- IC50 (human PKK mRNA [2]; 0.19-5.00 μM): 700 nM

Substance: 546847 (eA*e[5mC]*eT*eG*eT*d[5mC]*d[5mC]*dT*dA*dT*dA*dT*d[5mC]*dA*d[5mC]*eT*eG*eT*e[5mC]*e[5mC]; antisense) [compound 546847]
- % inhibition (human PKK mRNA [1]; Table 13, human PKK mRNA in HepaRG cells, 5-10-5 gapmers): 88%
- percent inhibition of PKK at 0.19 μM (human PKK mRNA [2]; Table 37): 39%
- percent inhibition of PKK at 0.56 μM (human PKK mRNA [2]; Table 37): 57%
- percent inhibition of PKK at 1.67 μM (human PKK mRNA [2]; Table 37): 75%
- percent inhibition of PKK at 5.00 μM (human PKK mRNA [2]; Table 37): 89%
- IC50 (human PKK mRNA [2]; 4 point dose response, Table 37): 400 nM
- percent inhibition of PKK mRNA, 0.19 μM (human PKK mRNA [2]): 14%
- percent inhibition of PKK mRNA, 0.56 μM (human PKK mRNA [2]): 44%
- percent inhibition of PKK mRNA, 1.67 μM (human PKK mRNA [2]): 83%
- percent inhibition of PKK mRNA, 5.00 μM (human PKK mRNA [2]): 95%
- IC50 (human PKK mRNA [2]; 0.19-5.00 μM): 700 nM

Substance: 546876 (eG*eT*e[5mC]*e[5mC]*eT*dA*dT*dA*dT*d[5mC]*dA*d[5mC]*dT*dG*dT*eA*e[5mC]*e[5mC]*eT*eG; antisense) [compound 546876]
- % inhibition (human PKK mRNA [1]; [4]): 87%
- percent inhibition of PKK at 0.19 μM (human PKK mRNA [2]; Table 39): 0%
- percent inhibition of PKK at 0.56 μM (human PKK mRNA [2]; Table 39): 50%
- percent inhibition of PKK at 1.67 μM (human PKK mRNA [2]; Table 39): 85%
- percent inhibition of PKK at 5.00 μM (human PKK mRNA [2]; Table 39): 95%
- IC50 (human PKK mRNA [2]; [5]): 800 nM

Substance: 548770 (antisense eT*eA*eA*e[5mC]*dA*dG*dT*dA*dT*d[5mC]*dA*d[5mC]*dT*eG*eT*e[5mC]*e[5mC]) [compound 548770]
- % inhibition (human PKK mRNA [1]; human PKK mRNA, HepaRG cells, 5,000 nM antisense oligonucleotide, Table 18): 92%
- percent inhibition of PKK at 0.19 μM (human PKK mRNA [2]; Table 36): 26%
- percent inhibition of PKK at 0.56 μM (human PKK mRNA [2]; Table 36): 54%
- percent inhibition of PKK at 1.67 μM (human PKK mRNA [2]; Table 36): 77%
- percent inhibition of PKK at 5.00 μM (human PKK mRNA [2]; Table 36): 91%
- IC50 (human PKK mRNA [2]; [3]): 500 nM
- percent inhibition of PKK mRNA, 0.19 μM (human PKK mRNA [2]): 9%
- percent inhibition of PKK mRNA, 0.56 μM (human PKK mRNA [2]): 0%
- percent inhibition of PKK mRNA, 1.67 μM (human PKK mRNA [2]): 61%
- percent inhibition of PKK mRNA, 5.00 μM (human PKK mRNA [2]): 92%
- IC50 (human PKK mRNA [2]; 0.19-5.00 μM): 1700 nM

Substance: 546870 (e[5mC]*eT*eG*eT*eA*d[5mC]*d[5mC]*dT*dA*dT*dA*dA*d[5mC]*dT*d[5mC]*eT*eA*eA*e[5mC]*eA; antisense) [compound 546870]
- % inhibition (human PKK mRNA [1]; [4]): 87%
- percent inhibition of PKK at 0.19 μM (human PKK mRNA [2]; Table 39): 35%
- percent inhibition of PKK at 0.56 μM (human PKK mRNA [2]; Table 39): 42%
- percent inhibition of PKK at 1.67 μM (human PKK mRNA [2]; Table 39): 80%
- percent inhibition of PKK at 5.00 μM (human PKK mRNA [2]; Table 39): 95%
- IC50 (human PKK mRNA [2]; [5]): 500 nM
- percent inhibition of PKK mRNA, 0.19 μM (human PKK mRNA [2]): 36%
- percent inhibition of PKK mRNA, 0.56 μM (human PKK mRNA [2]): 34%
- percent inhibition of PKK mRNA, 1.67 μM (human PKK mRNA [2]): 61%
- percent inhibition of PKK mRNA, 5.00 μM (human PKK mRNA [2]): 91%
- IC50 (human PKK mRNA [2]; 0.19-5.00 μM): 1000 nM

Substance: 546897 (eA*eG*eT*eA*eT*d[5mC]*dA*d[5mC]*dT*dG*dT*d[5mC]*d[5mC]*dT*dA*eT*eG*eT*e[5mC]*eA; antisense) [compound 546897]
- % inhibition (human PKK mRNA [1]; human PKK mRNA, HepaRG cells, 5-10-5 motif oligonucleotides targeting SEQ ID NO: 1 and 10): 90%
- percent inhibition of PKK at 0.19 μM (human PKK mRNA [2]; Table 36): 40%
- percent inhibition of PKK at 0.56 μM (human PKK mRNA [2]; Table 36): 56%
- percent inhibition of PKK at 1.67 μM (human PKK mRNA [2]; Table 36): 71%
- percent inhibition of PKK at 5.00 μM (human PKK mRNA [2]; Table 36): 95%
- IC50 (human PKK mRNA [2]; [3]): 400 nM
- percent inhibition of PKK mRNA, 0.19 μM (human PKK mRNA [2]): 16%
- percent inhibition of PKK mRNA, 0.56 μM (human PKK mRNA [2]): 17%
- percent inhibition of PKK mRNA, 1.67 μM (human PKK mRNA [2]): 69%
- percent inhibition of PKK mRNA, 5.00 μM (human PKK mRNA [2]): 97%
- IC50 (human PKK mRNA [2]; 0.19-5.00 μM): 800 nM
